Results on two molecules are retold here after patent US8362013B2, “Salt of ABT-263 and solid-state forms thereof” (AbbVie Inc., priority 2009, dated 2013).

A short description of series [1]: stability in an oxidative environment. The series is classed as physicochemical.
Series [2] concerns lymphoid malignancies. The conditions noted are these: cited from earlier work.
The test system of series [3] is small-cell lung cancer (SCLC). The conditions noted are these: cited from earlier work.
Series [4] deals with pro-apoptotic effects of other chemotherapeutic agents. Conditions: cited from earlier work.

Take `CC1(C)CCC(c2ccc(Cl)cc2)=C(CN2CCN(c3ccc(C(=O)NS(=O)(=O)c4ccc(N[C@H](CCN5CCOCC5)CSc5ccccc5)c(S(=O)(=O)C(F)(F)F)c4)cc3)CC2)C1` [ABT-263]: the “degradation in an oxidative environment” value in series [1] is recorded as “susceptible to degradation”.
Consider `CN(C)CC[C@H](CSc1ccccc1)Nc1ccc(S(=O)(=O)NC(=O)c2ccc(N3CCN(Cc4ccccc4-c4ccc(Cl)cc4)CC3)cc2)cc1[N+](=O)[O-]` [ABT-737, N-(4-(4-((4′-chloro-(1,1′-biphenyl)-2-yl)methyl)piperazin-1-yl)benzoyl)-4-(((1R)-3-(dimethylamino)-1-((phenylsulfanyl)methyl)propyl)amino)-3-nitrobenzene-sulfonamide], for which the single-agent activity entry in series [2] and in series [3] was “single-agent activity” throughout. The “potentiation of pro-apoptotic effects of other chemotherapeutic agents” value in series [4] was “potentiates”.
